Several values for one entry are separate records, joined by “and”; a condition that tells them apart may be missing. Equal entries are not always repeated. Entries after “also recorded” stand apart in the source; their conditions may differ. Where two headings read alike, the source gives them in different places.
Key:
[1] = test system: TSPO A147T (polymorphism rs6971); details: human polymorphism rs6971; cited from earlier work
TSPO Wild-type = target: TSPO Wild-type; parameters: method as in Farges et al. (1994); details: yeast mitochondria, ref Farges et al. (1994), read-out: PK 11195 Kd; cited from earlier work
human TSPO ∆15-35 = details: cited from earlier work
TSPO V26T = test system: TSPO V26T; parameters: method as in PMID 7808437; details: cited from earlier work
mammalian TSPO ∆5-20 = test system: mammalian TSPO ∆5-20; parameters: method as in Li et al. (1998); details: bacterial protoplast, control = wild type, ref Li et al. (1998); cited from earlier work
mammalian TSPO ∆108-119 = test system: mammalian TSPO ∆108-119; parameters: method as in Li et al. (1998); details: bacterial protoplast, control = wild type, ref Li et al. (1998); cited from earlier work
TSPO K39G = test system: TSPO K39G; parameters: method as in PMID 7808437; details: cited from earlier work
rec-mTSPO [2] = target: T1, rec-mTSPO (Mus musculus, UniProt P50637); details: cited from earlier work
T1 construct: His tag; made in house; host or cells: E. coli BL21 DE3

TSPO ∆156-169 = target: TSPO ∆156-169; parameters: method as in Farges et al. (1994); details: yeast mitochondria, ref Farges et al. (1994), read-out: PK 11195 Kd; cited from earlier work
TSPO ∆157-169 = target: TSPO ∆157-169; parameters: method as in Farges et al. (1994); details: yeast mitochondria, ref Farges et al. (1994), read-out: PK 11195 Kd; cited from earlier work
[3] = test system: WT and mutants of TSPO reconstituted in liposomes; assay: [3H]-PK 11195 saturation binding to rec-mTSPO reconstituted in proteoliposomes, all constructs; parameters: species or system mouse; details: all stoichiometries obtained
Method: (§1) SDS-solubilized mTSPO was reincorporated in proteoliposomes by mixing with SDS solubilized lipids (dimyristoyl phosphatidyl choline/dimyristoyl phosphatidyl ethanolamine, 9:1) at a lipid to protein ratio of 5 (w/w). The detergent was removed using Bio-Beads SM2 according to published protocols. Reconstitution was followed by combining the fluorescence and optical changes as previously described.
(§2) Proteoliposomes containing recombinant mTSPO were incubated with various concentrations of [^3H]-PK 11195 (SA, 83.5 Ci/mmol, Perkin Elmer SAS, Courtaboeuf, France) in phosphate buffer saline (PBS). The bound ligand was quantified by liquid scintillation spectrometry after filtration on Whatman Filters GF/C (Sigma-Aldrich, Saint Quentin Fallavier, France) according to published protocols. The Kd and Bmax values were determined by fitting the saturation curves with the following equation Ligand bound = (Bmax × Ligand)/(Kd + Ligand).

rec-mTSPO [4] = target: T1, rec-mTSPO; assay: Limited trypsin digestion of rec-mTSPO solubilized in DPC; details: DPC 0.1%, 30 °C, TSPO:trypsin 30:1; 100 µM PK 11195 and increasing concentrations
Method: Proteolysis was performed by mixing rec-mTSPO (0.2 mg/mL) solubilized in DPC (0.1%) and a phosphate buffer (10 mM at pH 7.0) with protease at a TSPO:Trypsin ratio of 30:1 (w/w).

TSPO R32G = test system: TSPO R32G; parameters: method as in PMID 7808437; details: cited from earlier work
TSPO W42 mutation = test system: TSPO W42 mutation; parameters: method as in PMID 7808437; details: cited from earlier work
mammalian TSPO ∆141-152 = test system: mammalian TSPO ∆141-152; parameters: method as in Li et al. (1998); details: bacterial protoplast, control = wild type, ref Li et al. (1998); cited from earlier work
mammalian TSPO ∆120-133 = test system: mammalian TSPO ∆120-133; parameters: method as in Li et al. (1998); details: bacterial protoplast, control = wild type, ref Li et al. (1998); cited from earlier work
TSPO ∆2-20 = target: TSPO ∆2-20; parameters: method as in Farges et al. (1994); details: yeast mitochondria, ref Farges et al. (1994), read-out: PK 11195 Kd; cited from earlier work
rec-mTSPO [5] = target: T1, rec-mTSPO; assay: Circular dichroism of rec-mTSPO in DPC with PK 11195; details: increasing amounts of PK 11195, high ligand over protein molar ratios
Method: Far UV circular dichroism spectra were recorded on a Jobin-Yvon CD6 spectropolarimeter operated at room temperature according to published protocols [19, 25, 45]. Briefly, a detergent solubilized mTSPO sample (5 µM) in a 10 mM sodium phosphate buffer solution was placed in a 0.2 mm path length quartz cuvette (Hellma, Paris, France). The CD spectra were recorded in the 185 to 270 nm wavelength range with a 0.2 nm step resolution, 1 s signal averaging time and 1 nm bandwidth. The spectra were averaged over five scans, corrected for background and smoothed over 25 points. A consensus secondary structure content was estimated by spectral deconvolution using CONTINLL, CDSSTR and Selcon software and datasets of reference proteins SMP50 (37 soluble proteins and 13 membrane proteins) and SP37 (37 soluble proteins) [46], as well as CDFriend.

TSPO ∆158-159 = target: TSPO ∆158-159; parameters: method as in Farges et al. (1994); details: yeast mitochondria, ref Farges et al. (1994), read-out: PK 11195 Kd; cited from earlier work
mammalian TSPO ∆41-51 = test system: mammalian TSPO ∆41-51; parameters: method as in Li et al. (1998); details: bacterial protoplast, control = wild type, ref Li et al. (1998); cited from earlier work
rec-mTSPO Y34S = target: T2, rec-mTSPO Y34S (Mus musculus, UniProt P50637, Y34S); assay: [3H]-PK 11195 saturation binding to rec-mTSPO reconstituted in proteoliposomes
T2 construct: His tag; made in house; host or cells: E. coli
Method: (§3) Mutations were performed using the QuikChange Site-Directed Mutagenesis kit (Stratagene, France) according to published protocols. In brief, miniprep pET-PBR plasmid double-strand DNA was used as a template. Synthetic oligonucleotide primer pairs containing a point mutation or deletion, each complementary to the opposing strand of the vector, were extended during temperature cycling by pfu DNA polymerase. The nicked vector DNAs containing the desired mutations were then transfected into E. coli.
as §1, §2

rec-mTSPO Y34F/F100A = target: T3, rec-mTSPO Y34F/F100A (Mus musculus, UniProt P50637, F100A/Y34F); assay: as above
T3 construct: His tag; made in house; host or cells: E. coli
Method: as §3, §1, §2

rec-mTSPO Y34F = target: T4, rec-mTSPO Y34F (Mus musculus, UniProt P50637, Y34F); assay: as above
T4 construct: His tag; made in house; host or cells: E. coli
Method: as §3, §1, §2

[6] = target: T5, rec-mTSPO ΔC-ter (153–169) (Mus musculus, UniProt P50637); assay: as above
T5 construct: His tag; made in house; host or cells: E. coli
Method: as §3, §1, §2

rec-mTSPO Δ41–51 = target: T6, rec-mTSPO Δ41–51 (Mus musculus, UniProt P50637, DEL41-51); assay: as above; details: Δ41–50 as printed in Table 1
T6 construct: His tag; made in house; host or cells: E. coli
Method: as §3, §1, §2

rec-mTSPO F100A = target: T7, rec-mTSPO F100A (Mus musculus, UniProt P50637, F100A); assay: as above
T7 construct: His tag; made in house; host or cells: E. coli
Method: as §3, §1, §2

rec-mTSPO Y34F/F99A = target: T8, rec-mTSPO Y34F/F99A (Mus musculus, UniProt P50637, F99A/Y34F); assay: as above
T8 construct: His tag; made in house; host or cells: E. coli
Method: as §3, §1, §2

TSPO R103A = test system: TSPO R103A; parameters: method as in PMID 7808437; details: cited from earlier work
TSPO ∆2-20,158-169 = target: TSPO ∆2-20,158-169; parameters: method as in Farges et al. (1994); details: yeast mitochondria, ref Farges et al. (1994), read-out: PK 11195 Kd; cited from earlier work
rec-mTSPO WT = target: T9, rec-mTSPO WT (Mus musculus, UniProt P50637); assay: [3H]-PK 11195 saturation binding to rec-mTSPO reconstituted in proteoliposomes
T9 construct: His tag; made in house; host or cells: E. coli BL21 DE3
Method: as §1, §2

TSPO2 = test system: TSPO2; parameters: method as in PMID 19729679; details: paralogous TSPO2; cited from earlier work
mammalian TSPO ∆153-169 = test system: mammalian TSPO ∆153-169; parameters: method as in Li et al. (1998); details: bacterial protoplast, control = wild type, ref Li et al. (1998); cited from earlier work
TSPO W47 mutation = test system: TSPO W47 mutation; parameters: method as in PMID 7808437; details: cited from earlier work

## COc1ccccc1CN(C(C)=O)c1cnccc1Oc1ccccc1 [PBR28]
[1]
  decrease of the affinity due to A147T polymorphism: one or two orders of magnitude

## CCC(C)N(C)C(=O)c1cc2ccccc2c(-c2ccccc2Cl)n1 (centres unmarked) [PK 11195, N-butan-2-yl-1-(2-chlorophenyl)-N-methylisoquinoline-3-carboxamide]
TSPO Wild-type
  Kd: 0.006 ± 0.003 µM
Human TSPO ∆15-35; Δ15–35 of human TSPO overexpressed in yeast
  effect of deletion on PK 11195 binding: complete loss of PK 11195 binding; also recorded: loses its binding capacity
Human TSPO ∆15-35; ∆15-35, yeast mitochondria, ref Farges et al. (1994), read-out: PK 11195 Kd
  Kd: > 0.2 µM
TSPO V26T
  effect of mutation on PK 11195 binding: complete loss of PK 11195 binding
Mammalian TSPO ∆5-20
  PK 11195 binding % of control: ~ 70 % of control
Mammalian TSPO ∆108-119
  PK 11195 binding % of control: ~ 70 % of control
TSPO K39G
  effect of mutation on PK 11195 binding: no effect
rec-mTSPO [2]; SDS-solubilized rec-mTSPO
  PK 11195 binding in detergent: no PK 11195 binding
rec-mTSPO [2]; detergent-solubilized, additional interaction between PK 11195 and detergent
  affinity with detergent-solubilized rec-mTSPO: micro-millimolar range
rec-mTSPO [2]; rec-mTSPO in the presence of DPC
  PK 11195 binding in detergent: observed
TSPO ∆156-169
  Kd: 0.01 ± 0.004 µM
TSPO ∆157-169
  Kd: 0.009 ± 0.003 µM
[3]
  stoichiometry (Bmax): 25–30 nmol of PK 11195 bound per mg of recombinant TSPO
rec-mTSPO [4]
  effect on proteolytic cleavage of rec-mTSPO by trypsin: protected against cleavage
TSPO R32G
  effect of mutation on PK 11195 binding: no effect
TSPO W42 mutation
  effect of mutation on PK 11195 binding: no effect
Mammalian TSPO ∆141-152
  PK 11195 binding % of control: ~ 75 % of control
Mammalian TSPO ∆120-133
  PK 11195 binding % of control: ~ 55 % of control
TSPO ∆2-20
  Kd: 0.025 ± 0.008 µM
rec-mTSPO [5]
  effect on CD spectrum of rec-mTSPO: increasing changes in the CD spectrum
TSPO ∆158-159
  Kd: 0.01 ± 0.006 µM
Mammalian TSPO ∆41-51
  PK 11195 binding % of control: ~ 55 % of control and 55 % of control
rec-mTSPO Y34S
  Bmax: 25 ± 5 nmol/mg
  Kd: 0.04 ± 0.007 µM
rec-mTSPO Y34F/F100A; Y34F/F100A vs WT
  decrease in affinity for PK 11195 compared with WT: 20 fold
rec-mTSPO Y34F/F100A; Y34F/F100A, proteoliposomes
  Bmax: 25 ± 10 nmol/mg
  Kd: 0.15 ± 0.02 µM
rec-mTSPO Y34F
  Bmax: 27 ± 3 nmol/mg
  Kd: 0.02 ± 0.003 µM
[6]
  Bmax: 30 ± 10 nmol/mg
  Kd: 0.02 ± 0.005 µM
rec-mTSPO Δ41–51
  Bmax: 25 ± 8 nmol/mg
  Kd: 0.02 ± 0.008 µM
rec-mTSPO F100A
  Bmax: 25 ± 7 nmol/mg
  Kd: 0.02 ± 0.005 µM
rec-mTSPO Y34F/F99A; Y34F/F99A vs WT
  decrease in affinity for PK 11195 compared with WT: 20 fold
rec-mTSPO Y34F/F99A; Y34F/F99A, proteoliposomes
  Bmax: 25 ± 10 nmol/mg
  Kd: 0.15 ± 0.02 µM
TSPO R103A
  effect of mutation on PK 11195 binding: no effect
TSPO ∆2-20,158-169
  Kd: > 0.2 µM
rec-mTSPO WT; proteoliposomes, fit of saturation curve
  Kd: 0.008 ± 0.003 µM
rec-mTSPO WT; stoichiometry, nmol PK 11195 bound per mg recombinant TSPO
  Bmax: 25 ± 3 nmol/mg
TSPO2
  binding to TSPO2: not binding
[1]
  effect of A147T polymorphism on affinity: no effect
Mammalian TSPO ∆153-169
  PK 11195 binding % of control: ~ 75 % of control and 75 % of control
TSPO W47 mutation
  effect of mutation on PK 11195 binding: no effect

— paper PMC6470738, “Characterization of the High-Affinity Drug Ligand Binding Site of Mouse Recombinant TSPO” (International Journal of Molecular Sciences, 2019)
